Here are results for four molecules from PMC10817943 (Nature Communications, 2024).

The test system of experiment [1] is M. tuberculosis (Mtb) strain H37Ra. Put plainly: microbe, parasite or virus in culture. In kind it is cell-based. Particulars: Mycobacterium tuberculosis, read-out: MIC Mtb H37Ra.
Experiment [2] deals with M. tuberculosis (Mtb) strain H37Rv. In words: microbe, parasite or virus in culture. Conditions: Mycobacterium tuberculosis, H37RV. In kind it is cell-based, Mycobacterium tuberculosis.
For experiment [3], the system named is M. smegmatis (Msmeg) strain mc^2155. Put plainly: microbe, parasite or virus in culture. In kind it is cell-based. Particulars: Mycolicibacterium smegmatis, MC^2155, read-out: MIC M. smegmatis mc^2155.
Experiment [4] relates to M. smegmatis mc^2155 GM^R. Put plainly: microbe, parasite or virus in culture. Conditions: Mycolicibacterium smegmatis, MC^2155, read-out: MIC M. smegmatis mc^2155 GM^R. It counts as cell-based.
Experiment [5] deals with M. marinum (Mm) strain M (ATCC BAA-535). Put plainly: microbe, parasite or virus in culture. In kind it is cell-based. Particulars: Mycobacterium marinum, ATCCBAA535, read-out: MIC M. marinum strain M.
For experiment [6], the system named is CHO-K1 cells. In words: cells. In kind it is cell-based, Chinese hamster (Cricetulus griseus). Particulars: Cricetulus griseus, CHO-K1, 120 h, read-out: IC50 CHO-K1.
For experiment [7], the target named is M. smegmatis DnaN (msDnaN) (Mycolicibacterium smegmatis, UniProt A0QND6). Put plainly: biochemical. Particulars: for Response (Average): MST source data, runs #1-#3, listed as MP B. It counts as binding.
The subject of experiment [8] is S. aureus Newman. Put plainly: microbe, parasite or virus in culture. It counts as cell-based. Conditions: Staphylococcus aureus, read-out: MIC S. aureus Newman.
In experiment [9] the test system is B. subtilis DSM 10. In words: microbe, parasite or virus in culture. Particulars: Bacillus subtilis, DSM10, read-out: MIC B. subtilis DSM 10. It counts as cell-based.
For experiment [10], the system named is E. coli BW25113. In words: microbe, parasite or virus in culture. It counts as cell-based. Conditions: Escherichia coli, BW25113, read-out: MIC E. coli BW25113.
Experiment [11] relates to C. freundii DSM 30039. In words: microbe, parasite or virus in culture. In kind it is cell-based. Conditions: Citrobacter freundii, DSM30039, read-out: MIC C. freundii DSM 30039.
In experiment [12] the test system is A. baumannii DSM 30008. In words: microbe, parasite or virus in culture. It counts as cell-based. Particulars: Acinetobacter baumannii, DSM30008, read-out: MIC A. baumannii DSM 30008.
Experiment [13] has as its target T1, M. smegmatis DnaN (DNA polymerase III sliding clamp) (M. smegmatis mc^2155, UniProt A0QND6 1-397, labeled using Monolith Series Protein Labeling Kit BLUE-NHS).
T1 construct: also called msDnaN; DnaN from M. smegmatis mc^2155
T1 sequence (looked up): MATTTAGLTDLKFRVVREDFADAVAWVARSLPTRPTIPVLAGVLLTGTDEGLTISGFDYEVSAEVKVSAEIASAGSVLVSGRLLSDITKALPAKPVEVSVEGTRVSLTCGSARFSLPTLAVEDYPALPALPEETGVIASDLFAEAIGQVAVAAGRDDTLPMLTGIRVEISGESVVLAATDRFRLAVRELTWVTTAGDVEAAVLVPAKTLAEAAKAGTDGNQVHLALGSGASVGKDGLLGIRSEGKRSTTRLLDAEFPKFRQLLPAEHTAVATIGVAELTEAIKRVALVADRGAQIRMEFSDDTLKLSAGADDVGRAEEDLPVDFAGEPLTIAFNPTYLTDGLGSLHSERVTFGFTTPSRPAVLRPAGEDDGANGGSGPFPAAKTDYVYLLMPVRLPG
Put plainly: MST; msDnaN labeled (BLUE-NHS) at 50 nM; compounds titrated in 16 serial dilution steps, triplicates; 20 mM Tris, 150 mM NaCl, 0.05% Tween-20; Monolith NT-115. Particulars: both partners purified.

≈ marks a conversion by molar mass, not a printed value. Where “and” joins values, the source holds several entries; their conditions need not be identical. Equal entries are not always repeated. Where two headings read alike, the source gives them in different places. Numbered stars: 1 amine (or outer) side, 2 acyl side, 3 side chain; on linkers, the order of the positions; unused ones are H or OH. Bridge positions count the residues as written; N and C are the ends. Square brackets hold non-standard residues; d marks the D form. Ends that are not written are not given here. Peptide text beside a SMILES is read from it. * marks the point of attachment. ξ: configuration not given here. X2 = CCCC1CC(C(=O)[*:2])N([*:1])C1; Butanoyl(2-oxo) = CCC(=O)C(=O)*; NMeAhp(2) = CCCCC[CH](NC)C(=O)O; ξPro(4ξ-Me) = CC1CNC(C(=O)O)C1; NMeT = CN[CH](C(=O)O)[CH](C)O; NMeL = CN[CH](CC(C)C)C(=O)O; hLeu = CC(C)CC[CH](N)C(=O)O; NMeV = CN[CH](C(=O)O)C(C)C Bounds are passed on as bounds.

Usually IC50 stands for the concentration at which inhibition is half-maximal. As a reminder, the Kd is the constant that tells how readily two partners part at equilibrium. Lower therefore signals a tighter complex. For the molecule `CCC(=O)C(=O)N(C)C(C(=O)N1CC(C)CC1C(=O)N(C)C1C(=O)NC(CC(C)C)C(=O)N2CC(C)CC2C(=O)NC(CCC(C)C)C(=O)N(C)C(C(C)C)C(=O)N2CCCC2C(=O)N(C)C(CC(C)C)C(=O)NCC(=O)OC1C)C(C)C` (centres unmarked) [Mycoplanecin B], the MIC in experiment [1] was 0.1 µg/mL (≈ 0.0855 µM); in experiment [2] (read-out: MIC Mtb H37Rv) it was 0.43 µg/mL (≈ 0.368 µM); in experiment [3], 0.5 µg/mL (≈ 0.428 µM); in [4], 8 µg/mL (≈ 6.84 µM); in experiment [5] it was 2 µg/mL (≈ 1.71 µM); in experiment [8], over 64 µg/mL. Further, the MIC in [9], in experiment [10], in experiment [11] and in experiment [12] was over 64 µg/mL in each case. Moreover, in [6], the IC50 was over 37 µg/mL. This molecule displayed a Kd in experiment [7] of 24.4 ± 11.9 nM. Moreover, the “Response (Average)” value is 897.348 and 900.943 and 911.516 in experiment [7] (Dose 1.22E-08 (unit not given)); 906.572 and 909.169 and 909.706 in [7] (Dose 1.25E-05 (unit not given)); 896.843 and 900.134 and 899.613 in experiment [7] (Dose 1.53E-09 (unit not given)); 907.358 and 910.005 and 911.362 in [7] (Dose 1.56E-06 (unit not given)); 905.084 and 913.604 and 911.242 in experiment [7] (Dose 1.95E-07 (unit not given)); 897.582 and 904.128 and 903.123 in experiment [7] (Dose 2.44E-08 (unit not given)). Moreover, the “Response (Average)” value in experiment [7] (Dose 2.50E-05 (unit not given)) was 906.786 and 911.734 and 910.009; in [7] (Dose 3.05E-09 (unit not given)), 897.958 and 898.601 and 900.671; in [7] (Dose 3.13E-06 (unit not given)) it was 907.585 and 910.886 and 909.908; in experiment [7] (Dose 3.91E-07 (unit not given)), 908.074 and 910.248 and 909.115; in [7] (Dose 4.88E-08 (unit not given)), 897.616 and 904.939 and 909.25; in experiment [7] (Dose 5.00E-05 (unit not given)), 906.528 and 909.788 and 910.069. Besides, the “Response (Average)” value in [7] (Dose 6.10E-09 (unit not given)) is 894.937 and 899.128 and 901.665; in experiment [7] (Dose 6.25E-06 (unit not given)), 905.496 and 910.338 and 909.682; in experiment [7] (Dose 7.81E-07 (unit not given)) it was 907.246 and 909.231 and 910.996; in experiment [7] (Dose 9.77E-08 (unit not given)) it was 902.534 and 911.539 and 911.215.

As to `CCCCCC1C(=O)NCC(=O)OC(C)C(N(C)C(=O)C2CC(CCC)CN2C(=O)C(C(C)C)N(C)C(=O)C(=O)CC)C(=O)NC(CC(C)C)C(=O)N2CC(C)CC2C(=O)NC(CCC(C)C)C(=O)N(C)C(C(C)C)C(=O)N2CCCC2C(=O)N1C` (centres unmarked) [Mycoplanecin E] ({Butanoyl(2-oxo)}-[NMeV][X2][NMeT]L[ξPro(4ξ-Me)][hLeu][NMeV]P[NMeAhp(2)]G; ester 3-C; configuration not given here), the MIC is 0.03 µg/mL (≈ 0.0248 µM) in experiment [1]; 0.083 µg/mL (≈ 0.0685 µM) in experiment [2] (read-out: MIC Mtb H37Rv); 0.083 µg/mL (≈ 0.0685 µM) in experiment [2] (read-out: minimum inhibition concentration against Mycobacterium tuberculosis); 0.125 µg/mL (≈ 0.103 µM) in experiment [3]; 0.5 µg/mL (≈ 0.413 µM) in experiment [5]; over 64 µg/mL in experiment [8]. Further, the MIC in [9], in [10], in [11] and in [12] was over 64 µg/mL in each case. In experiment [6], the IC50 was over 37 µg/mL. Moreover, the Kd in [7] turned out to be 64.4 ± 33.2 nM.

For `CCCC1CC(C(=O)N(C)C2C(=O)NC(CC(C)C)C(=O)N3CC(C)CC3C(=O)NC(CCC(C)C)C(=O)N(C)C(C(C)C)C(=O)N3CCCC3C(=O)N(C)C(CC(C)C)C(=O)NCC(=O)OC2C)N(C(=O)C(C(C)C)N(C)C(=O)C(=O)CC)C1` (centres unmarked) [Mycoplanecin D] ({Butanoyl(2-oxo)}-[NMeV][X2][NMeT]L[ξPro(4ξ-Me)][hLeu][NMeV]P[NMeL]G; ester 3-C; configuration not given here), the MIC is 0.05 µg/mL (≈ 0.0418 µM) in [1]; 0.17 µg/mL (≈ 0.142 µM) in [2] (read-out: MIC Mtb H37Rv); 0.25 µg/mL (≈ 0.209 µM) in [3]; 8 µg/mL (≈ 6.68 µM) in [4]; 1 µg/mL (≈ 0.835 µM) in [5]; over 64 µg/mL in [8]. The MIC in experiment [9], in experiment [10], in experiment [11] and in experiment [12] was over 64 µg/mL throughout. Also, in experiment [6], the IC50 is over 37 µg/mL. The same molecule gave a Kd in [7] of 134 ± 69.3 nM.

Consider VPTLPLVPLG (also: macrocycle, 4-methylproline twice, positions not placed) [griselimycin], for which, in [13], the Kd was found to be 6.5 nM.
